From patent publication US11046716B2, “Beta-lactamase inhibitors” (priority 2015, dated 2021)

Key:
SHV-5 = molecular target: T1, SHV-5 (Klebsiella pneumoniae, UniProt P0A3M1); experiment: β-lactamase enzyme inhibition assay, SHV-5 (cefotaxime substrate); format: biochemical
T1 construct: made in house; host or cells: E. coli BL21(DE3)
How it was run: (§1)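 Read-out is the rate of β-lactam ring hydrolysis monitored by absorbance: 300 nm for imipenem with KPC-2 and 260 nm for cefotaxime with SHV-5. Recombinant native enzymes were first incubated with compound at 37 °C for 15 min. The IC50 is the inhibitor concentration that halves the initial hydrolysis rate.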

KPC-2 = molecular target: T2, KPC-2 (Klebsiella pneumoniae, UniProt Q9F663); experiment: β-lactamase enzyme inhibition assay, KPC-2 (imipenem substrate); format: biochemical; settings: Class A; imipenem substrate, 300 nm; read-out: KPC-2
T2 construct: made in house; host or cells: E. coli BL21(DE3)
T2 sequence (Q9F663 25-293, looked up): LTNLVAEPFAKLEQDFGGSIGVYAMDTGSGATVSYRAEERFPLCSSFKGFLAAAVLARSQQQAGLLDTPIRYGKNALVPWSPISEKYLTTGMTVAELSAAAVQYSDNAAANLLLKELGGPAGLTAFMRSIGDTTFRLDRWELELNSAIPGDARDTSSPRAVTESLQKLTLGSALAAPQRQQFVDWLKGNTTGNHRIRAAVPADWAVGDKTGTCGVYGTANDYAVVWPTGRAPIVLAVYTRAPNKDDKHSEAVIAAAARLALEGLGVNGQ
How it was run: as §1

VIM-2 = molecular target: T3, VIM-2 (Escherichia coli, UniProt Q5U7L7); experiment: β-lactamase enzyme inhibition assay, VIM-2 (nitrocefin substrate); format: biochemical; settings: Class B; nitrocefin substrate, 486 nm; read-out: VIM-2
T3 construct: made in house; host or cells: E. coli BL21(DE3)
How it was run: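 Purified VIM-2 preincubated with inhibitor for 15 min at 37° C, then nitrocefin (100 μM final) added and absorbance at 486 nm followed for 10 min. Maximum hydrolysis rates compared with inhibitor-free controls; IC50 fitted from percent inhibition across inhibitor concentrations.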

AmpC = molecular target: T4, AmpC (Enterobacter cloacae, UniProt P05364); experiment: β-lactamase enzyme inhibition assay, p99 AmpC (nitrocefin substrate); format: biochemical
T4 construct: made in house; host or cells: E. coli BL21(DE3)
T4 sequence (P05364 21-381): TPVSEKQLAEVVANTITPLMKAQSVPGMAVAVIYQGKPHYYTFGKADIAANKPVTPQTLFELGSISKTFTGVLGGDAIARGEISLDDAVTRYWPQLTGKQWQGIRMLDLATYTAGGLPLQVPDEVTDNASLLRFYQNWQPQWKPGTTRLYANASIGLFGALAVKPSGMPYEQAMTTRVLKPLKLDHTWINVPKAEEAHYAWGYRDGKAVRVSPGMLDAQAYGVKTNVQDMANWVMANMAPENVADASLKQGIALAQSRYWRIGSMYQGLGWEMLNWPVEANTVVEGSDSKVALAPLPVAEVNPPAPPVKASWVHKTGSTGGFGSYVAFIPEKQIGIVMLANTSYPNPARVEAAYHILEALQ
How it was run: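 Read-out is the rate of β-lactam ring hydrolysis monitored by absorbance. Recombinant native enzymes were first incubated with compound at 37 °C for 15 min. The IC50 is the inhibitor concentration that halves the initial hydrolysis rate.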

OXA-48 = OXA-48 (UniProt Q6XEC0); experiment: β-lactamase enzyme inhibition assay, Class D oxacillinase; format: biochemical; settings: read-out: OXA-48
[1] = test system: E. coli expressing the Class A Extended Spectrum Beta-Lactamase (ESBL) CTX-M-15; experiment: Broth microdilution MIC assay with ceftazidime, E. coli CTX-M-15; format: cell-based; settings: Fixed CAZ (ceftazidime) 4 μg/mL; E. coli ESBL4 CTX-M-15
How it was run: (§2)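 Test compounds in 2-fold dilutions (16 to 0.125 μg/mL final) in CAMHB were combined with a β-lactam at a static 4 μg/ml final. Plates were inoculated per CLSI broth microdilution with the β-lactamase-producing strain (pre-grown 3-5 h) and incubated 16-20 h at 37° C. MIC of test compound was read visually.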

[2] = test system: E. cloacae expressing the Class C P99; experiment: Broth microdilution MIC assay with ceftazidime, E. cloacae P99; format: cell-based; settings: Fixed CAZ (ceftazidime) 4 μg/mL; E. cl. 144200 p99 AmpC
How it was run: as §2

[3] = test system: K. pneumoniae expressing the Class A carbapenemase KPC-2; experiment: Broth microdilution MIC assay with meropenem, K. pneumoniae KPC-2; format: cell-based; settings: Fixed Mero (meropenem) 4 μg/mL; K. p. 156319 KPC-3
How it was run: as §2

[4] = test system: P. aeruginosa expressing the Class B carbapenemase VIM-2; experiment: Broth microdilution MIC assay with meropenem, P. aeruginosa VIM-2; format: cell-based; settings: Fixed Mero (meropenem) 4 μg/mL; P. aerug. 2775 VIM-2
How it was run: as §2

[5] = test system: K. pneumoniae expressing the class A carbapenemase KPC-2 and the class B carbapenemase VIM-4; experiment: Broth microdilution MIC assay with meropenem, K. pneumoniae KPC-2 and VIM-4; format: cell-based; settings: Fixed Mero (meropenem) 4 μg/mL; K. p. A-1797 KPC-2 VIM-4
How it was run: as §2

[6] = test system: K. pneumoniae producing the Class D carbapenemase OXA-48; experiment: Broth microdilution MIC assay with meropenem, K. pneumoniae OXA-48; format: cell-based; settings: Fixed Mero (meropenem) 4 μg/mL; K. p. 11978 OXA-48
How it was run: as §2

T1 sequence (P0A3M1 22-286): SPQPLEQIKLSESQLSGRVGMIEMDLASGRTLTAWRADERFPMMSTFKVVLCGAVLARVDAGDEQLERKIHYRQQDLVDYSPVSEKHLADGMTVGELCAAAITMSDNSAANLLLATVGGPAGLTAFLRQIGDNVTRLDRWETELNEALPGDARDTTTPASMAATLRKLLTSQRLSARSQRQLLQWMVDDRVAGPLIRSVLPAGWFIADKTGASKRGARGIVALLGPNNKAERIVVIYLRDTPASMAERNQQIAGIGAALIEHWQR

| Compound | IC50 (SHV-5) [nM] | IC50 (KPC-2) [nM] | IC50 (VIM-2) [nM] | IC50 (AmpC) [nM] | IC50 (OXA-48) [nM] | MIC (μg/mL) of Exemplary Compounds in presence of fixed β-lactams: E. coli ESBL4 CTX-M-15 [1] | MIC (μg/mL) of Exemplary Compounds in presence of fixed β-lactams: E. cl. 144200 p99 AmpC [2] | MIC (μg/mL) of Exemplary Compounds in presence of fixed β-lactams: K. p. 156319 KPC-3 [3] | MIC (μg/mL) of Exemplary Compounds in presence of fixed β-lactams: P. aerug. 2775 VIM-2 [4] | MIC (μg/mL) of Exemplary Compounds in presence of fixed β-lactams: K. p. A-1797 KPC-2 VIM-4 [5] | MIC (μg/mL) of Exemplary Compounds in presence of fixed β-lactams: K. p. 11978 OXA-48 [6] |
| --- | --- | --- | --- | --- | --- | --- | --- | --- | --- | --- | --- |
| O=C(Cn1cc(C(=O)NC2CNC2)nn1)N[C@H]1Cc2cccc(C(=O)O)c2OB1O [Example 88, (R)-3-(2-(4-(azetidin-3-ylcarbamoyl)-1H-1,2,3-triazol-1-yl)acetamido)-2-hydroxy-3,4-dihydro-2H-benzo[e][1,2]oxaborinine-8-carboxylic acid] | 100 to 1000 | < 100 | < 100 | < 100 | 1000 to 10000 | C (C represents an MIC of <1 μg/mL) | C (C represents an MIC of <1 μg/mL) | B (B represents an MIC between 1 and 16 μg/mL inclusive) | C (C represents an MIC of <1 μg/mL) | C (C represents an MIC of <1 μg/mL) | B (B represents an MIC between 1 and 16 μg/mL inclusive) |
| O=C(Cn1cc(C2CCNC2)nn1)N[C@H]1Cc2cccc(C(=O)O)c2OB1O (stereo partly drawn) [Example 89, (3R)-2-hydroxy-3-(2-(4-(pyrrolidin-3-yl)-1H-1,2,3-triazol-1-yl)acetamido)-3,4-dihydro-2H-benzo[e][1,2]oxaborinine-8-carboxylic acid] | 100 to 1000 | 100 to 1000 | 100 to 1000 | < 100 | 1000 to 10000 | C (C represents an MIC of <1 μg/mL) | C (C represents an MIC of <1 μg/mL) | C (C represents an MIC of <1 μg/mL) | C (C represents an MIC of <1 μg/mL) | B (B represents an MIC between 1 and 16 μg/mL inclusive) | B (B represents an MIC between 1 and 16 μg/mL inclusive) |
| O=C(Cn1cc(C2CNC2)nn1)N[C@H]1Cc2cccc(C(=O)O)c2OB1O [Example 90, (R)-3-(2-(4-(azetidin-3-yl)-1H-1,2,3-triazol-1-yl)acetamido)-2-hydroxy-3,4-dihydro-2H-benzo[e][1,2]oxaborinine-8-carboxylic acid] | 100 to 1000 | < 100 | 100 to 1000 | < 100 | 1000 to 10000 | C (C represents an MIC of <1 μg/mL) | C (C represents an MIC of <1 μg/mL) | B (B represents an MIC between 1 and 16 μg/mL inclusive) | C (C represents an MIC of <1 μg/mL) | B (B represents an MIC between 1 and 16 μg/mL inclusive) | B (B represents an MIC between 1 and 16 μg/mL inclusive) |
| N=C(N)N1CC(c2cn(CC(=O)N[C@H]3Cc4cccc(C(=O)O)c4OB3O)nn2)C1 [Example 91, (R)-3-(2-(4-(1-carbamimidoylazetidin-3-yl)-1H-1,2,3-triazol-1-yl)acetamido)-2-hydroxy-3,4-dihydro-2H-benzo[e][1,2]oxaborinine-8-carboxylic acid] | < 100 | < 100 | 100 to 1000 | < 100 | 1000 to 10000 | C (C represents an MIC of <1 μg/mL) | C (C represents an MIC of <1 μg/mL) | C (C represents an MIC of <1 μg/mL) | B (B represents an MIC between 1 and 16 μg/mL inclusive) | B (B represents an MIC between 1 and 16 μg/mL inclusive) | B (B represents an MIC between 1 and 16 μg/mL inclusive) |
| NCC(O)Cc1cn(CC(=O)N[C@H]2Cc3cccc(C(=O)O)c3OB2O)nn1 (stereo partly drawn) [Example 92, (3R)-3-(2-(4-(3-amino-2-hydroxypropyl)-1H-1,2,3-triazol-1-yl)acetamido)-2-hydroxy-3,4-dihydro-2H-benzo[e][1,2]oxaborinine-8-carboxylic acid] | 100 to 1000 | < 100 | < 100 | < 100 | 1000 to 10000 | C (C represents an MIC of <1 μg/mL) | C (C represents an MIC of <1 μg/mL) | C (C represents an MIC of <1 μg/mL) | C (C represents an MIC of <1 μg/mL) | B (B represents an MIC between 1 and 16 μg/mL inclusive) | B (B represents an MIC between 1 and 16 μg/mL inclusive) |
| N=C(N)NCC(O)Cc1cn(CC(=O)N[C@H]2Cc3cccc(C(=O)O)c3OB2O)nn1 (stereo partly drawn) [Example 93, (3R)-3-(2-(4-(3-guanidino-2-hydroxypropyl)-1H-1,2,3-triazol-1-yl)acetamido)-2-hydroxy-3,4-dihydro-2H-benzo[e][1,2]oxaborinine-8-carboxylic acid] | < 100 | < 100 | 100 to 1000 | < 100 | 1000 to 10000 | C (C represents an MIC of <1 μg/mL) | C (C represents an MIC of <1 μg/mL) | B (B represents an MIC between 1 and 16 μg/mL inclusive) | C (C represents an MIC of <1 μg/mL) | B (B represents an MIC between 1 and 16 μg/mL inclusive) | B (B represents an MIC between 1 and 16 μg/mL inclusive) |
| NNC(=O)Cn1nnc(CC(=O)N[C@H]2Cc3cccc(C(=O)O)c3OB2O)n1 [Example 96, (R)-3-(2-(2-(2-hydrazinyl-2-oxoethyl)-2H-tetrazol-5-yl)acetamido)-2-hydroxy-3,4-dihydro-2H-benzo[e][1,2]oxaborinine-8-carboxylic acid] | < 100 | < 100 | 100 to 1000 | < 100 | < 100 | C (C represents an MIC of <1 μg/mL) | C (C represents an MIC of <1 μg/mL) | B (B represents an MIC between 1 and 16 μg/mL inclusive) | C (C represents an MIC of <1 μg/mL) | B (B represents an MIC between 1 and 16 μg/mL inclusive) | B (B represents an MIC between 1 and 16 μg/mL inclusive) |
